Converted amounts (≈) assume the structure as drawn. “And” between values parts separate entries of the source, which are not always exact repeats. Equal entries are not always repeated. Where two headings read alike, the source gives them in different places.
Key:
B16 melanoma cells [1] = assay: Anti-melanogenesis assay (melanin content); format: cell-based, mouse; conditions: for inhibition at 1 µg/mL: 1 μg/ml; for inhibition at 10 µg/mL: 10 μg/ml
Procedure: (§1) This assay was performed as described by Arung et al.. The mouse melanoma cell line B16 was obtained from the Riken Bioresource Center Cell Bank (Tsukuba, Japan). The B16 melanoma cells were maintained in Eagle’s Minimal Essential Medium (EMEM, Nissui Chemical, Tokyo) supplemented with 10% (v/v) fetal bovine serum (FBS; Gibco, Carlsbad, CA, USA) and 0.09 mg/mL theophylline (Sigma-Aldrich, St. Louis, MO, USA). […] After 24 h, test samples were dissolved in DMSO (<0.2% per well) and sample solution were added to each well. Arbutin (Tokyo Kasei Kogyo, Tokyo) was used as a positive control. The cells were incubated for an additional 48 h, and then the medium was replaced with fresh medium containing each sample again. After 24 h, the melanin content and the cell viability were measured using a microplate reader (BioTek-ELX800, BioTek Instruments, Winooski, VT, USA) at 405 nm and 570 nm, respectively. Cell viability was measured using the MTT (3-(4,5-dimethylthiazol-2-yl)-2,5-diphenyltetrazolium bromide) method.

[2] = Cell viability of B16 melanoma cells (MTT); conditions: mouse
Procedure: as §1

B16 melanoma cells [3] = assay: Cell viability of B16 melanoma cells (MTT); conditions: for Inhibition rate (100% − cell viability): B16 cells
Procedure: as §1

mushroom tyrosinase = assay: Tyrosinase inhibition assay; format: biochemical; conditions: for inhibitory effect on tyrosinase (in words): L-DOPA as substrate; for inhibitory activity on tyrosinase (in words): L-tyrosine as substrate, relatively high concentrations
Procedure: Tyrosinase inhibition activity was evaluated by using L-tyrosine and L-DOPA as substrates, as described. Briefly, 333 μL of 2.5 mM L-tyrosine or L-DOPA solution (Sigma-Aldrich) was mixed with 600 μL of 0.1 M phosphate buffer (pH 6.8) and incubated at 25 °C. Then, 33 μL of the sample solution (dissolved in DMSO in various concentrations) and 33 μL of 1380 units/mL mushroom tyrosinase (Sigma-Aldrich) were added to the mixture. The optical density was measured at 475 nm up to the appropriate time. Kojic acid (Sigma-Aldrich) was used as the positive control; the final concentration is 3.3 μg/mL.

Propionibacterium acnes = assay: Anti-bacterial assay (growth inhibition, MIC/MBC by broth microdilution); format: cell-based; conditions: for MBC / MIC: P. acnes, broth microdilution; for MBC: read-out: MBC; for inhibition at 100 µg/mL: read-out: Inhibition Rate (P. acnes growth); for activity against P. acnes (in words): at their maximum solubility
Procedure: The antibacterial assay was based mostly on the methods described by Tanaka et al. with slight modification. Propionibacterium acne (NBRC 107605) was used for the antibacterial assay. A single colony of the test strain was taken and 5 mL of Gifu anaerobic medium (GAM) broth (Nissui, Tokyo) was added to it. This culture was incubated at 37 °C for 30 h. It was then added to the bacterial suspension to prepare a bacterial concentration at 10^5 CFU/mL. The bacterial solution was used for the subsequent antibacterial assay. Each compound was dissolved in DMSO, and benzalkonium chloride (Wako) was used as a positive control. The plate was incubated at 37 °C for 30 h. Finally, bacterial growth was measured by a microplate reader at 630 nm. The MIC and MBC were evaluated by the standard broth microdilution method.

RBL-2H3 cells [4] = assay: β-hexosaminidase release from IgE-stimulated RBL-2H3 mast cells; format: cell-based, rat; conditions: for IC50: IgE-stimulated RBL-2H3 cells, read-out: IC50 (β-hexosaminidase release)
Procedure: (§2) The anti-allergy assay was based mostly on the methods described by Zhu et al. and Yun et al. with slight modification. Rat basophilic leukemia (RBL-2H3) cells were obtained from the Riken Bio-resource Center Cell Bank (Tsukuba, Japan). RBL-2H3 cells were incubated in EMEM medium containing 10% FBS and 1% antibiotics–antimycotics at 37 °C. The cells were seeded on a 96-well plate (2 × 10^5 cells/well). After 24 h of incubation, the medium was supplemented with 0.5 μg/mL anti-DNP (dinitrophenol) mouse immunoglobulin E (IgE) (Sigma-Aldrich). After an additional 24 h of incubation, the medium was replaced with 100 μL of Tyrode buffer. The sample dissolved in DMSO (<0.5% per well) was added, and the cell plate was incubated again for 30 min, then replaced with 100 μL of tyrode buffer containing 50 μg/mL DNP-bovine serum albumin (BSA) (Invitrogen, Carlsbad, CA, USA). After 1 h of incubation, 50 μL of the supernatant was collected from each well and mixed with 50 μL of substrate solution (p-nitrophenyl-N-acetyl-β-glucosaminide, 2 mM; Sigma-Aldrich) in a new 96-well plate. The mixture was incubated at room temperature on a shaker for 3 h. Finally, 100 μL of stop solution was added, and the absorbance was read at 405 nm. A parallel MTT experiment was performed to measure the cell viability. The MTT experiment was done exactly as described.

[5] = Cell viability of RBL-2H3 cells (parallel MTT); format: cell-based, rat; conditions: rat
Procedure: as §2

RBL-2H3 cells [6] = assay: Cell viability of RBL-2H3 cells (parallel MTT); format: cell-based, rat; conditions: 25 μg/ml, RBL-2H3 cells
Procedure: as §2

NHDF cells = assay: Skin type I collagen synthesis promoting assay (ELISA, with MTT); format: cell-based, human; conditions: fold of control
Procedure: The assay for measuring the promotion of skin collagen synthesis was described by Kishikawa et al.. Adult NHDF cells (Lonza, Tokyo) were routinely maintained in 10% FBS and 1% antibiotic-antimycotic (Invitrogen) in Dulbecco’s modified Eagle’s medium (DMEM, Wako). After growing to confluence, cells at a density of 5 × 10^3 cells/well were seeded on 96-well plates for 24 h before the treatment. The medium was replaced with a mixture of 1 μL of sample solution (DMSO < 0.5% per well) and 99 μL of DMEM supplemented with 0.5% FBS. After 72 h of cultivation, the amount of collagen in the medium was measured using a human type I collagen enzyme-linked immunosorbent assay (ELISA) kit (ACEL, Kanagawa, Japan). The amount of collagen production was calculated using a standard curve prepared by measurement by the same ELISA. The cells remaining in the 96-well plate were subjected to an MTT assay. Ascorbic acid (100 μM, Wako) was used as a positive control.

[7] = tested on: inflammation induced by 12-O-tetradecanoylphorbol-13-acetate (TPA); set-up: method as in PMID 16204964, PMID 14745168; conditions: mice; cited from earlier work
[8] = tested on: Epstein–Barr virus early antigen; set-up: method as in PMID 16204964, PMID 14745168; conditions: cited from earlier work
[9] = Mus musculus, B16 cells, read-out: Inhibition rate (100% − melanin synthesis)
[10] = Mus musculus, 2.5 μg/ml, B16 cells, read-out: Inhibition rate (100% − melanin synthesis)
[11] = Mus musculus, 5 μg/ml, B16 cells, read-out: Inhibition rate (100% − melanin synthesis)
[12] = Mus musculus, 20 μg/ml, B16 cells, read-out: Inhibition rate (100% − melanin synthesis)
[13] = Mus musculus, B16 melanoma cells, read-out: IC50 (melanin synthesis)
[14] = Mus musculus, B16 melanoma cells, read-out: IC50 melanin
[15] = Cutibacterium acnes, read-out: MIC
[16] = Cutibacterium acnes, concentration 100 μg/mL
[17] = Rattus norvegicus, RBL-2H3, 25 μg/mL, read-out: Inhibition Rate (β-hexosaminidase release)
[18] = 25 μg/ml, RBL-2H3 cells, read-out: Cell viability

SMILES | S.I (selectivity index, CC50 value/IC50 value) (B16 melanoma cells [1]; B16 melanoma cells) | inhibition at 1 µg/mL (B16 melanoma cells [1]; [9]) [%] | inhibition at 2.5 µg/mL (B16 melanoma cells [1]; [10]) [%] | inhibition at 5 µg/mL (B16 melanoma cells [1]; [11]) [%] | inhibition at 10 µg/mL (B16 melanoma cells [1]; [9]) [%] | inhibition at 20 µg/mL (B16 melanoma cells [1]; [12]) [%] | IC50 (B16 melanoma cells [1]; [13]) [µM] | IC50 (B16 melanoma cells [1]; [14]) [µg/mL] | Inhibition rate (100% − cell viability) (B16 melanoma cells [3]; 1 μg/ml) [%] | Inhibition rate (100% − cell viability) (B16 melanoma cells [3]; 2.5 μg/ml) [%] | Inhibition rate (100% − cell viability) (B16 melanoma cells [3]; 5 μg/ml) [%] | Inhibition rate (100% − cell viability) (B16 melanoma cells [3]; 10 μg/ml) [%] | Inhibition rate (100% − cell viability) (B16 melanoma cells [3]; 20 μg/ml) [%] | inhibitory effect on tyrosinase (in words) (mushroom tyrosinase) | inhibitory activity on tyrosinase (in words) (mushroom tyrosinase) | MBC (Propionibacterium acnes; Cutibacterium acnes) [µg/mL] | MIC (Propionibacterium acnes; [15]) [µg/mL] | inhibition at 100 µg/mL (Propionibacterium acnes; [16]) [%] | activity against P. acnes (in words) (Propionibacterium acnes) | inhibition at 25 µg/mL (RBL-2H3 cells [4]; [17]) [%] | further results
CC1(C)CC[C@]2(C(=O)O)CC[C@]3(C)C(=CC[C@@H]4[C@@]5(C)CC[C@H](O)C(C)(C)[C@@H]5CC[C@]43C)[C@@H]2C1 [Compound 2, Oleanolic acid] | 1.5 | 9.5 ± 4.6 | 27.8 ± 4.8 | 33.5 ± 6 | 45.9 ± 1.5 | 58.6 ± 2.3 | 26.8 | 12.2 | 4.9 ± 4.6 | 7.8 ± 4.1 | 17.0 ± 6.2 | 27.4 ± 7.0 | 54.9 ± 2.3 | no inhibitory effect | moderate inhibitory activity | 200 (≈ 438 µM) | 100 (≈ 219 µM) | 100.4 ± 0.8 | active | 5.8 ± 6.7 | CC50 at 72 h ([2]; B16 melanoma cells): 18.2 µg/mL and 39.9 µM; viability at 25 μg/ml [5, 18]: 102 ± 6.2%
C=C(C)[C@@H]1CC[C@]2(C(=O)O)CC[C@]3(C)[C@H](CC[C@@H]4[C@@]5(C)CC[C@H](O)C(C)(C)[C@@H]5CC[C@]43C)[C@@H]12 [Compound 4, Betulinic acid] | 1.4 | 35.4 ± 0.5 | 44.8 ± 1.4 | 49.7 ± 3.1 | 54 ± 3.3 |  | 11.8 | 5.3 | 1.2 ± 12.0 | 20.8 ± 5.2 | 35.9 ± 5.2 | 58.4 ± 14.1 | 68.1 ± 11.4 | no inhibitory effect | moderate inhibitory activity |  |  | < 0 |  | 29.4 ± 8.1 | inhibition at 0.5 µg/mL (B16 melanoma cells [1]; Mus musculus, 0.5 μg/ml, B16 cells, read-out: Inhibition rate (100% − melanin synthesis)): 23.2 ± 1.4%; CC50 at 72 h [2]: 7.6 µg/mL and 16.7 µM; viability at 25 μg/ml [5, 18]: 97.9 ± 10.6%
C[C@H]1[C@H](C)CC[C@]2(C(=O)O)CC[C@]3(C)C(=CC[C@@H]4[C@@]5(C)C[C@@H](O)[C@@H](O)C(C)(C)[C@@H]5CC[C@]43C)[C@H]12 [Compound 9, 3-epicorosolic acid] |  |  |  |  |  |  |  |  |  | 0.0 ± 10.3 | 0.0 ± 11.8 | 3.4 ± 4.1 | 14.8 ± 4.1 |  |  |  |  |  |  |  | Inhibition rate (100% − melanin synthesis) (B16 melanoma cells [1]; 2.5 μg/ml, B16 cells): 1.0 ± 5.4%; Inhibition rate (100% − melanin synthesis) (B16 melanoma cells [1]; 5 μg/ml, B16 cells): 0.0 ± 5.3%; Inhibition rate (100% − melanin synthesis) (B16 melanoma cells [1]; 20 μg/ml, B16 cells): 7.8± 0.9%; IC50 melanin (B16 melanoma cells [1]; B16 melanoma cells): > 20.0 µg/mL; IC50 (B16 melanoma cells [1]; B16 melanoma cells, read-out: IC50 (melanin synthesis)): > 42.3 µM; CC50 cell viability (B16 melanoma cells [3]; B16 melanoma cells, MTT): > 20.0 µg/mL; CC50 (B16 melanoma cells [3]; read-out: CC50 (cell viability), B16 melanoma cells, MTT): > 42.3 µM; Inhibition Rate (P. acnes growth) (Propionibacterium acnes; concentration 100 μg/mL): – (no inhibition); Inhibition Rate (β-hexosaminidase release) (RBL-2H3 cells [4]; 1 μg/mL): 8.9 ± 5.2%; Inhibition Rate (β-hexosaminidase release) (RBL-2H3 cells [4]; 5 μg/mL): 33.7 ± 6.9%; Inhibition Rate (β-hexosaminidase release) (RBL-2H3 cells [4]; 12.5 μg/mL): 50.7 ± 3.2 %; Inhibition Rate (β-hexosaminidase release) (RBL-2H3 cells [4]; 25 μg/mL): 54.4 ± 4.9 %; IC50 (RBL-2H3 cells [4]): 14.2 µM; Cell viability (RBL-2H3 cells [6]): 98.0 ± 7.7%; CP/CV value (collagen production %/cell viability %) (NHDF cells; 1 μg/mL): 1.2; CP/CV value (collagen production %/cell viability %) (NHDF cells; 5 μg/mL): 1.3; inhibitory activity against TPA-induced inflammation (in words) [7]: significant inhibitory activity; inhibitory activity against TPA-induced Epstein–Barr virus early antigen activation (in words) [8]: significant inhibitory activity
C[C@@H]1CC[C@]2(C(=O)O)CC[C@]3(C)C(=CC[C@@H]4[C@@]5(C)C[C@@H](O)[C@@H](O)C(C)(C)[C@@H]5CC[C@]43C)[C@@H]2[C@]1(C)O [Compound 12, euscaphic acid] | 0.7 |  | 0 | 0 | 35 ± 3.6 | 58.8 | 34 | 16.6 |  | 0.0 ± 6.9 | 0.0 ± 6.6 | 44.9 ± 2.7 | 91.1 ± 1.0 |  |  | 50 (≈ 102 µM) | 50 (≈ 102 µM) | 98.5 ± 1.3 | active | 74.5 ± 1.3 | CC50 at 72 h [2]: 12.5 µg/mL and 25.6 µM; MIC (Propionibacterium acnes): 50/50 μg/mL; inhibition at 1 µg/mL (RBL-2H3 cells [4]; Rattus norvegicus, RBL-2H3, 1 μg/mL, read-out: Inhibition Rate (β-hexosaminidase release)): 10.4 ± 10.8%; inhibition at 5 µg/mL (RBL-2H3 cells [4]; Rattus norvegicus, RBL-2H3, 5 μg/mL, read-out: Inhibition Rate (β-hexosaminidase release)): 37.7 ± 3.9%; inhibition at 12.5 µg/mL (RBL-2H3 cells [4]; Rattus norvegicus, RBL-2H3, 12.5 μg/mL, read-out: Inhibition Rate (β-hexosaminidase release)): 67 ± 1.8%; IC50 (RBL-2H3 cells [4]; Rattus norvegicus): 15.8 µM; viability at 25 μg/ml [5]: 93.9 ± 7.3%; inhibitory activity against TPA-induced inflammation (in words) [7]: significant inhibitory activity; inhibitory activity against TPA-induced Epstein–Barr virus early antigen activation (in words) [8]: significant inhibitory activity

Reference: article PMC5454942, “The Potential of Triterpenoids from Loquat Leaves (Eriobotrya japonica) for Prevention and Treatment of Skin Disorder” (International Journal of Molecular Sciences, 2017)
